Test results as given in patent US10112918B2, “15-oxospiramilactone derivatives, preparation method and uses thereof” (Kunming Institute of Botany, The Chinese Academy of Sciences, priority 2013, dated 2018).
Where two headings read alike, the source gives them in different places. Each block holds one compound with its values, some of them ahead of it.

Legend:
Assay type in all cases: cell-based
[1] = test system: HL-60 (human promyelocytic leukemia cells); assay: MTT inhibition of tumor cell growth, HL-60; settings: Homo sapiens, HL-60, 48 h
How it was run: (§1)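 Seed 5000-10000 cells/well (adherent lines 12 h ahead); add compound at 40 μM or, for hits near 50% inhibition, 5 concentrations; incubate 48 h at 37° C; add MTT 4 h, dissolve in 10% SDS overnight; read 595 nm; derive IC50 by Reed-Muench.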

[2] = test system: SMMC-7721 (human hepatoma cells); assay: MTT inhibition of tumor cell growth, SMMC-7721; settings: Homo sapiens, SMMC-7721, 48 h
How it was run: as §1

[3] = test system: A-549 (Human lung adenocarcinoma cells); assay: MTT inhibition of tumor cell growth, A-549; settings: Homo sapiens, A549, 48 h
How it was run: as §1

[4] = test system: MCF-7 (human breast cancer cells); assay: MTT inhibition of tumor cell growth, MCF-7; settings: Homo sapiens, MCF7, 48 h
How it was run: as §1

[5] = test system: SW-480 (human colon cancer cells); assay: MTT inhibition of tumor cell growth, SW-480; settings: Homo sapiens, SW480, 48 h
How it was run: as §1

[6] = test system: Wnt signaling pathway (Top-Flash reporter gene); assay: Top-Flash Wnt reporter gene assay in HEK293T cells with Wnt3a conditioned medium; settings: Homo sapiens, HEK-293T, 6 h, HEK293T, Wnt3a conditioned medium, 6 h
How it was run: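 IC50 is the concentration giving relative residual reporter activity of 0.5 by 4-parameter logistic fit, after subtracting conditioned-medium DMSO background and normalizing to Wnt-induced signal. Luciferase read from HEK293T carrying TOP-flash and GFP internal standard, exposed 6 h to L-cell Wnt3a conditioned medium plus compound.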

[7] = Table 2, derivatives having potential Michael reaction acceptor
[8] = Table 3, single Michael reaction acceptor, modified lactonic ring
[9] = Table 2, derivatives having potential Michael reaction acceptor, read-out: IC50 SW-480
[10] = Table 3, single Michael reaction acceptor, modified lactonic ring, read-out: IC50 SW-480
[11] = Table 6, 7-carbonyl derivatives, read-out: IC50 SW-480, 7-carbonyl derivatives
[12] = Table 8, read-out: IC50 (μM), inhibitory activity on the Wnt signaling pathway
[13] = Table 10, read-out: IC50 (μM), inhibitory activity on the Wnt signaling pathway
[14] = Table 5, derivatives having double Michael reaction acceptor
[15] = Table 5, derivatives having double Michael reaction acceptor, read-out: IC50 SW-480
[16] = Table 6, double Michael reaction acceptor derivatives, read-out: IC50 SW-480, derivatives having double Michael reaction acceptor
[17] = Table 9, read-out: IC50(μM), inhibitory activity on the Wnt signaling pathway
[18] = Table 6, 7-hydroxyl derivatives and controls, read-out: IC50 SW-480, 7-hydroxyl derivatives
[19] = Table 4, derivatives obtained by reduction of the lactonic ring
[20] = Table 4, derivatives obtained by reduction of the lactonic ring, read-out: IC50 SW-480

Compound: C=C1C(=O)C23CC[C@H]1CC2[C@@]12CCC[C@@]4(C)CO[C@@H]1O[C@@H]3CC42 (stereo partly shown) [Compound 36]
IC50 [1, 8]: 17 µM | IC50 [2, 8]: 10.9 µM | IC50 [3, 8]: 13700 nM | IC50 [4, 8]: 18.5 µM | IC50 [5, 10]: 24600 nM | IC50 [6, 12]: 18.1 ± 2.67 µM

Compound: C=C1C(=O)C23CC[C@H]1CC2[C@]1(C(=O)O)CCC[C@@](C)(CO)C1C[C@H]3O (stereo partly shown) [Compound 38]
IC50 [1, 8]: > 40 µM | IC50 [2, 8]: > 40 µM | IC50 [3, 8]: > 40000 nM | IC50 [4, 8]: > 40 µM | IC50 [5, 10]: > 40000 nM | IC50 [6, 12]: > 60 µM

Compound: C=C1C(=O)C23CC[C@H]1CC2[C@@]12CCC[C@@](C)(COS(=O)OC1)C2C[C@H]3O (stereo partly shown) [Compound 41]
IC50 [1, 8]: 1.58 µM | IC50 [2, 8]: 0.9 µM | IC50 [3, 8]: 2180 nM | IC50 [4, 8]: 2.24 µM | IC50 [5, 10]: 2090 nM | IC50 [5, 18]: 2090 nM | IC50 [6, 12]: > 60 µM

Compound: C=C1C(=O)C23CC[C@H]1CC2[C@]1(COC(C)=O)CCC[C@@](C)(COC(C)=O)C1C[C@H]3O (stereo partly shown) [Compound 45]
IC50 [1, 19]: 4.74 µM | IC50 [2, 19]: 7.83 µM | IC50 [3, 19]: 3490 nM | IC50 [4, 19]: 4.82 µM | IC50 [5, 20]: 9890 nM | IC50 [5, 18]: 2810 nM | IC50 [6, 12]: 9.98 ± 1 µM

Compound: C=C1C(=O)C23CC[C@H]1CC2[C@]1(CO)CCC[C@@](C)(CO)C1C[C@H]3O (stereo partly shown) [Compound 46]
IC50 [1, 19]: 4.28 µM | IC50 [2, 19]: 4.48 µM | IC50 [3, 19]: 4280 nM | IC50 [4, 19]: 8.07 µM | IC50 [5, 20]: 4420 nM | IC50 [6, 13]: 27.7 ± 2.8 µM

Compound: C=C1C(=O)C23CC[C@H]1CC2[C@]1(COC(C)=O)CCC[C@@](C)(COC(C)=O)C1CC3=O (stereo partly shown) [Compound 47]
IC50 [1, 7]: 3.38 µM | IC50 [1, 19]: 3.38 µM | IC50 [2, 7]: 3.91 µM | IC50 [2, 19]: 3.91 µM | IC50 [3, 7]: 2950 nM | IC50 [3, 19]: 2950 nM | IC50 [4, 7]: 3.38 µM | IC50 [4, 19]: 3.38 µM | IC50 [5, 9]: 3740 nM | IC50 [5, 20]: 3740 nM | IC50 [5, 11]: 3670 nM | IC50 [6, 12]: 16.9 ± 1.89 µM

Compound: C=C1C(=O)C23CC[C@H]1CC2[C@]1(COC(C)=O)CCC[C@@](C)(COC(C)=O)C1[C@H](CO)C3=O (stereo partly shown) [Compound 48]
IC50 [1, 7]: 5.03 µM | IC50 [2, 7]: 6.13 µM | IC50 [3, 7]: 3040 nM | IC50 [4, 7]: 2.93 µM | IC50 [5, 9]: 3940 nM | IC50 [6, 17]: 46.9 ± 1.26 µM

Compound: C=C1C(=O)C23CC[C@H]1CC2[C@]1(COC(C)=O)CCC[C@@](C)(COC(C)=O)C1[C@H](COS(C)(=O)=O)C3=O (stereo partly shown) [Compound 49]
IC50 [1, 7]: 6.5 µM | IC50 [2, 7]: 14 µM | IC50 [3, 7]: 11000 nM | IC50 [4, 7]: 12.8 µM | IC50 [5, 9]: 15500 nM | IC50 [6, 17]: 58.2 ± 1.18 µM

Compound: C=C1C(=O)C23CC[C@H]1CC2[C@]1(COC(C)=O)CCC[C@@](C)(COC(C)=O)C1[C@H](CN1CCOCC1)C3=O (stereo partly shown) [Compound 50]
IC50 [1, 7]: 6.3 µM | IC50 [2, 7]: 10.8 µM | IC50 [3, 7]: 4690 nM | IC50 [4, 7]: 4.23 µM | IC50 [5, 9]: 6570 nM | IC50 [6, 17]: 56 ± 0.92 µM

Compound: C=C1C(=O)C23CC[C@H]1CC2[C@]1(COC(C)=O)CCC[C@@](C)(COC(C)=O)C1[C@H](COC(C)=O)C3=O (stereo partly shown) [Compound 52]
IC50 [1, 7]: 6.33 µM | IC50 [2, 7]: 15.4 µM | IC50 [3, 7]: 11100 nM | IC50 [4, 7]: 15.1 µM | IC50 [5, 9]: 12900 nM | IC50 [6, 17]: > 60 µM

Compound: C=C1C(=O)C23CC[C@@H](CC2[C@]2(COC(C)=O)CCC[C@@](C)(COC(C)=O)C12)C(=C)C3=O (stereo partly shown) [Compound 53]
IC50 [1, 14]: 1.21 µM | IC50 [2, 14]: 0.75 µM | IC50 [3, 14]: 640 nM | IC50 [4, 14]: 0.65 µM | IC50 [5, 15]: 780 nM | IC50 [5, 16]: 780 nM | IC50 [6, 17]: 7.3 µM

Compound: C=C1C(=O)C23CC[C@H]1CC2[C@]1(COCC#N)CCC[C@@](C)(COC(=O)c2cccs2)C1CC3=O (stereo partly shown) [Compound 55]
IC50 [1, 19]: 0.62 µM | IC50 [2, 19]: 1.06 µM | IC50 [3, 19]: 1170 nM | IC50 [4, 19]: 0.65 µM | IC50 [5, 20]: 800 nM | IC50 [6, 13]: 12.1 ± 1.25 µM

Compound: C=C1C(=O)[C@]23CC[C@H]1CC2[C@]1(COC(=O)N2CCOCC2)CCC[C@@](C)(COS(C)(=O)=O)C1CC3=O (stereo partly shown) [Compound 59]
IC50 [1, 19]: 4.18 µM | IC50 [2, 19]: 3.95 µM | IC50 [3, 19]: 4210 nM | IC50 [4, 19]: 3.31 µM | IC50 [5, 20]: 2940 nM | IC50 [6, 13]: 43.8 ± 3.05 µM

Results, then the compound that gave them:

IC50 [1, 7]: 4.9 µM | IC50 [1, 8]: 4.9 µM | IC50 [2, 7]: 4.62 µM | IC50 [2, 8]: 4.62 µM | IC50 [3, 7]: 2970 nM | IC50 [3, 8]: 2970 nM | IC50 [4, 7]: 2.85 µM | IC50 [4, 8]: 2.85 µM | IC50 [5, 9]: 2370 nM | IC50 [5, 10]: 2370 nM | IC50 [5, 11]: 2060 nM | IC50 [6, 12]: 9.12 ± 0.21 µM
Compound: C=C1C(=O)[C@]23CC[C@H]1CC2[C@@]12CCC[C@@](C)(COC1)C2CC3=O (stereo partly shown) [Compound 28]

IC50 [1, 7]: 1.94 µM | IC50 [2, 7]: 1.9 µM | IC50 [3, 7]: 770 nM | IC50 [4, 7]: 1.44 µM | IC50 [5, 9]: 1530 nM | IC50 [6, 13]: 15.4 ± 1.5 µM
Compound: C=C1C(=O)[C@]23CC[C@H]1CC2[C@@]12CCC[C@@](C)(COC1)C2[C@H](CO)C3=O (stereo partly shown) [Compound 30]

IC50 [1, 7]: 3.6 µM | IC50 [1, 14]: 1.31 µM | IC50 [2, 7]: 4.44 µM | IC50 [2, 14]: 1.79 µM | IC50 [3, 7]: 6110 nM | IC50 [3, 14]: 760 nM | IC50 [4, 7]: 8.86 µM | IC50 [4, 14]: 1.71 µM | IC50 [5, 9]: 5430 nM | IC50 [5, 15]: 620 nM | IC50 [5, 16]: 450 nM | IC50 [6, 17]: 7.1 ± 0.7 µM
Compound: C=C1C(=O)[C@@]23CC[C@@H](CC2[C@@]24CCC[C@@](C)(COC2)C14)C(=C)C3=O (stereo partly shown) [Compound 31]

IC50 [1, 7]: 3.45 µM | IC50 [2, 7]: 3.12 µM | IC50 [3, 7]: 2220 nM | IC50 [4, 7]: 2.02 µM | IC50 [5, 9]: 1580 nM | IC50 [6, 13]: 19.8 ± 1.04 µM
Compound: C=C1C(=O)[C@]23CC[C@H]1CC2[C@@]12CCC[C@@](C)(COC1)C2[C@H](COS(C)(=O)=O)C3=O (stereo partly shown) [Compound 32]

IC50 [1, 8]: 28.8 µM | IC50 [2, 8]: 34.8 µM | IC50 [3, 8]: 17500 nM | IC50 [4, 8]: 21.5 µM | IC50 [5, 10]: 20700 nM | IC50 [6, 12]: > 60 µM
Compound: C=C1C(=O)C23CC[C@H]1CC2[C@@]12CCC[C@@](C)(C(=O)OC1=O)C2CC3=O (stereo partly shown) [Compound 39]

IC50 [1, 14]: 0.68 µM | IC50 [2, 14]: 0.16 µM | IC50 [3, 14]: 580 nM | IC50 [4, 14]: 0.78 µM | IC50 [5, 15]: 590 nM | IC50 [5, 16]: 340 nM | IC50 [6, 17]: 12.8 ± 0.13 µM
Compound: C=C1C(=O)C23CC[C@@H](CC2[C@@]24CCC[C@@](C)(COS(=O)OC2)C14)C(=C)C3=O (stereo partly shown) [Compound 43]
